We go through two compounds from article PMC4770715, “LIM kinase inhibitors disrupt mitotic microtubule organization and impair tumor cell proliferation” (Oncotarget, 2015).

Among the targets are EPHB2 (Homo sapiens, UniProt P29323); NEK4 (Homo sapiens, UniProt P51957); DDR1 (Homo sapiens, UniProt Q08345); MERTK (Homo sapiens, UniProt Q12866); PIK3CA (Homo sapiens, UniProt P42336); GAK (Homo sapiens, UniProt O14976); PDGFRA (Homo sapiens, UniProt P16234); PIM2 (Homo sapiens, UniProt Q9P1W9); TGFBR1 (Homo sapiens, UniProt P36897); MAP3K2 (Homo sapiens, UniProt Q9Y2U5); IRAK4 (Homo sapiens, UniProt Q9NWZ3); TNK1 (Homo sapiens, UniProt Q13470).

Common to all, as to assay: biochemical
Parameters in all cases: KINOMEscan active-site competition binding, percent of control (100 = no competition)
What all share (conditions): competition binding, percent control

The target of another test is T1, TRKC (Homo sapiens, UniProt Q16288).
T1 construct: gene NTRK3

For test [1], the target named is T2, TYK2(JH2domain-pseudokinase) (Homo sapiens, UniProt P29597).
T2 construct: JH2domain-pseudokinase

For another test, the target named is T3, QSK (Homo sapiens, UniProt Q9Y2K2).
T3 construct: gene SIK3

Test [2] addresses T4, TYK2(JH1domain-catalytic) (Homo sapiens, UniProt P29597).
T4 construct: JH1domain-catalytic

Another test concerns the target T5, PCTK2 (Homo sapiens, UniProt Q00537).
T5 construct: gene CDK17

In the next test the target is T6, PKAC-alpha (Homo sapiens, UniProt P17612).
T6 construct: gene PRKACA

Another test deals with T7, SgK110 (Homo sapiens, UniProt P0C264).
T7 construct: gene SBK3

The target of a further test is T8, MLK2 (Homo sapiens, UniProt Q02779).
T8 construct: gene MAP3K10

A further test addresses T9, TAK1 (Homo sapiens, UniProt O43318).
T9 construct: gene MAP3K7

For a further test, the target named is T10, BRK (Homo sapiens, UniProt Q13882).
T10 construct: gene PTK6

The target of the next test is T11, DCAMKL3 (Homo sapiens, UniProt Q9C098).
T11 construct: gene DCLK3

PIK3CA, sequence (P42336 whole entry): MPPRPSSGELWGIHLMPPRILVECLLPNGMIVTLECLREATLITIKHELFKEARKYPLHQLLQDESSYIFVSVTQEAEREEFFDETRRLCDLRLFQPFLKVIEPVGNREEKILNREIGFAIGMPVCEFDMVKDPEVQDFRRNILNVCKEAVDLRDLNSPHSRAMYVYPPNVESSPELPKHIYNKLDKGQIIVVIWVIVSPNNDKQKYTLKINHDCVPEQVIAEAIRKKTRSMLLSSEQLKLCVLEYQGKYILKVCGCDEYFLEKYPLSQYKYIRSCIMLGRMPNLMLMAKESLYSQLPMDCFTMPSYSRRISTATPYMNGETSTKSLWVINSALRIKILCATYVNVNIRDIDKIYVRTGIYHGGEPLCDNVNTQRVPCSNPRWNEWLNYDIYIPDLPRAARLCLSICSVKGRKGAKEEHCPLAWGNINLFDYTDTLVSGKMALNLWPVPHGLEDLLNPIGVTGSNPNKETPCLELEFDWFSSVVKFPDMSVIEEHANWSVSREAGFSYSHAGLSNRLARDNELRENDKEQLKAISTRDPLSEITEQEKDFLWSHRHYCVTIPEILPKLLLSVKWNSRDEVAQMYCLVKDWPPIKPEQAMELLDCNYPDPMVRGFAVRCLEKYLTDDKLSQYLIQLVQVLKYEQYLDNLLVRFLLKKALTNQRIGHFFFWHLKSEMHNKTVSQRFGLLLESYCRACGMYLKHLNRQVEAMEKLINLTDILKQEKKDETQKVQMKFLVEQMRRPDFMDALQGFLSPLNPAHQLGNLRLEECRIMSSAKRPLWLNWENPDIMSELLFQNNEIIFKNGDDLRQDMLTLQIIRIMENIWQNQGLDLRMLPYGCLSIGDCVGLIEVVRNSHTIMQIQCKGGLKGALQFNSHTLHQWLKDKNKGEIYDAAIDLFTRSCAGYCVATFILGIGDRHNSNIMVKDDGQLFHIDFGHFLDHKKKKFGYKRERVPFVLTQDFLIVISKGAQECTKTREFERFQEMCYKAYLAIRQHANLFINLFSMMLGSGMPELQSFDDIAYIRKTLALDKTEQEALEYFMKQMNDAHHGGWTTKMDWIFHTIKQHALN
TGFBR1, sequence (P36897 whole entry): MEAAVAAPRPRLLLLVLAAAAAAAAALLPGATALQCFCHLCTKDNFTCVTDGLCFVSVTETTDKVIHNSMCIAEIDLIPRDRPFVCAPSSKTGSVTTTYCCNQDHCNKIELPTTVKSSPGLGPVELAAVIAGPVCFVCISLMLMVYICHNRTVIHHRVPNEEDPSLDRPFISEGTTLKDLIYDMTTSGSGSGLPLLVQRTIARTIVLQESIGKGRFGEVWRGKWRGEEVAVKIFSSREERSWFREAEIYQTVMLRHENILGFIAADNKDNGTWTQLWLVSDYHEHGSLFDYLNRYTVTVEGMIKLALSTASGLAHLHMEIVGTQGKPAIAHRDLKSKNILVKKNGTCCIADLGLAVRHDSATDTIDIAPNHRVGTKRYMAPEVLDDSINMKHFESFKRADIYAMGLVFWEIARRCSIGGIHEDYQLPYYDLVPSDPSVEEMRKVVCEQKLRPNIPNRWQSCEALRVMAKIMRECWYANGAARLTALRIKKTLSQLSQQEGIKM
T4 sequence (P29597 whole entry): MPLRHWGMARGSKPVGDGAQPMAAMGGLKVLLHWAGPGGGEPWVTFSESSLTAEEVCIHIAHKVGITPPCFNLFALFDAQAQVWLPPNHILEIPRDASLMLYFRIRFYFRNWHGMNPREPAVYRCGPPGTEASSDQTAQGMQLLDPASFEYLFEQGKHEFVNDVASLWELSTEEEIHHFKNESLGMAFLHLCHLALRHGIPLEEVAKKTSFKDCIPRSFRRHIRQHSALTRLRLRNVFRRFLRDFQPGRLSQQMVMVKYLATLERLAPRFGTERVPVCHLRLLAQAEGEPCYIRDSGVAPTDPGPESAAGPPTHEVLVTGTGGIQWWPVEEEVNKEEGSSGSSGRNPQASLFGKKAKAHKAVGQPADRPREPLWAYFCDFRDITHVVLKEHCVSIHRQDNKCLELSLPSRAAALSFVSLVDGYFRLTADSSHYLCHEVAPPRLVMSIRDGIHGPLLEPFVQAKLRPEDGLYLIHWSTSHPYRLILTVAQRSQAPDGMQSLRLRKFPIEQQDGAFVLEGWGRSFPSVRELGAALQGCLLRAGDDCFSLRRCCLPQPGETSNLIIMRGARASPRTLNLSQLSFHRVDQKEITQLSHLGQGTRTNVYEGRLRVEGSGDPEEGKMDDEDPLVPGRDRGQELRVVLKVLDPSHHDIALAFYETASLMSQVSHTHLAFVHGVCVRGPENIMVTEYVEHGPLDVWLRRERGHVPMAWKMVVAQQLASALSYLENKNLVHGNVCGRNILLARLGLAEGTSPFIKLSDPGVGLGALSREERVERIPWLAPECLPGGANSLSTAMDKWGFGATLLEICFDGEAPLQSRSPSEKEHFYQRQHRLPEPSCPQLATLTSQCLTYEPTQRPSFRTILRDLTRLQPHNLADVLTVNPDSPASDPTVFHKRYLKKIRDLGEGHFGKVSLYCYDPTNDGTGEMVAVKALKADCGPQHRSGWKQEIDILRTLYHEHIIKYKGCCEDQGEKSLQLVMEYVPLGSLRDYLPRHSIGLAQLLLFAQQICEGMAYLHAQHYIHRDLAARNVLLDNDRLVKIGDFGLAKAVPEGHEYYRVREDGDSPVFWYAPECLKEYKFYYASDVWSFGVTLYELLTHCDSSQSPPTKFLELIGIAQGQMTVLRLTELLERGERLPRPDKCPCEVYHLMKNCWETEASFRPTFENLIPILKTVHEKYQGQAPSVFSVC
T2 sequence (P29597 whole entry): as above
T3 sequence (Q9Y2K2 whole entry): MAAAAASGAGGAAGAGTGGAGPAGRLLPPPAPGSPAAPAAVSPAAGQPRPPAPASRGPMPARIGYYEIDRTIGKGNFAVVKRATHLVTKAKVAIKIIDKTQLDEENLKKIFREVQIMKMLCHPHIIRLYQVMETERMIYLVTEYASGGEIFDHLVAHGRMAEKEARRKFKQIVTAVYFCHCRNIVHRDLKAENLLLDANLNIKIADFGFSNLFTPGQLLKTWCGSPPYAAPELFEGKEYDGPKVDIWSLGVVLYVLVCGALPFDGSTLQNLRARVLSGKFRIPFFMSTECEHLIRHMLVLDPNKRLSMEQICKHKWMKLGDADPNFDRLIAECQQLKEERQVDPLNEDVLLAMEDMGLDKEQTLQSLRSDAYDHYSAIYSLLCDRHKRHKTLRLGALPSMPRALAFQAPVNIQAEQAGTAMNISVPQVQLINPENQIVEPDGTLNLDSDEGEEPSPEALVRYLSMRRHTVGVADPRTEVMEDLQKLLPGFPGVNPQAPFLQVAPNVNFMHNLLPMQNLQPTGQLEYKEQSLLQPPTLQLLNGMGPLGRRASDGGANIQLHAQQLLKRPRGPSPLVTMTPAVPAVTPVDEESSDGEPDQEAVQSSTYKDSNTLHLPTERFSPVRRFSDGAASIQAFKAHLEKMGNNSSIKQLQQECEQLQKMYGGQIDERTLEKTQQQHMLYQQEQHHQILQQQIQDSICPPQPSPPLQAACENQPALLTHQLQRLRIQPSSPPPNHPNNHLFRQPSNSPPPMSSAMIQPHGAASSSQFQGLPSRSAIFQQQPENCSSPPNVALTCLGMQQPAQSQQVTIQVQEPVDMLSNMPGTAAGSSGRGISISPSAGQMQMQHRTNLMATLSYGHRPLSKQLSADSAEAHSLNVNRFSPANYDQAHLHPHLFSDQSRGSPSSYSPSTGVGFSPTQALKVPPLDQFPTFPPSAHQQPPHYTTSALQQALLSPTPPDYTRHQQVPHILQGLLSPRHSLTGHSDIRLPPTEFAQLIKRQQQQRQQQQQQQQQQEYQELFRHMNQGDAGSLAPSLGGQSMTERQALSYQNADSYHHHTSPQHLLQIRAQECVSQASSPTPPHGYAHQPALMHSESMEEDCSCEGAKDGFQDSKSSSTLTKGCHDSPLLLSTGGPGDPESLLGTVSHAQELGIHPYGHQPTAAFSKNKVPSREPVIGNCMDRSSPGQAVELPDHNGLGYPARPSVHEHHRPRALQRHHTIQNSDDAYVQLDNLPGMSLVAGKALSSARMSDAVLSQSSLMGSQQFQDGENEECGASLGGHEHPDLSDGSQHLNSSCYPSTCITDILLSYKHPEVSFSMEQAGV
T9 sequence (O43318 whole entry): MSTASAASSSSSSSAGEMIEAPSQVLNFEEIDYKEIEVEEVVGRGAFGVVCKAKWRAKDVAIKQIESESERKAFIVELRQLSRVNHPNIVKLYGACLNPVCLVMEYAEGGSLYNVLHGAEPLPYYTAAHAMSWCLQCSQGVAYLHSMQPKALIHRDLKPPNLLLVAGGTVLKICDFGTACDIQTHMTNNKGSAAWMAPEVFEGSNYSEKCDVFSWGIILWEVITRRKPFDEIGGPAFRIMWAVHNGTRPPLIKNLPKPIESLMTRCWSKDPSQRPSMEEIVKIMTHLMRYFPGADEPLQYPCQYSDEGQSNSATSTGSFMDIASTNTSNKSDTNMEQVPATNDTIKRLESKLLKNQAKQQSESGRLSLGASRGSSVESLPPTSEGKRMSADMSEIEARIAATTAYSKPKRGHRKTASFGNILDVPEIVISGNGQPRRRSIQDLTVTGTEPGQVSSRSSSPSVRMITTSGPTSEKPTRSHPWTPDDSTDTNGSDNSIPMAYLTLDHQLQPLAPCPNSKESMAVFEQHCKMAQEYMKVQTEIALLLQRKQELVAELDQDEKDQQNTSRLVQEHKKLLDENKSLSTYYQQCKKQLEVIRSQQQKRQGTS
PIM2, sequence (Q9P1W9 whole entry): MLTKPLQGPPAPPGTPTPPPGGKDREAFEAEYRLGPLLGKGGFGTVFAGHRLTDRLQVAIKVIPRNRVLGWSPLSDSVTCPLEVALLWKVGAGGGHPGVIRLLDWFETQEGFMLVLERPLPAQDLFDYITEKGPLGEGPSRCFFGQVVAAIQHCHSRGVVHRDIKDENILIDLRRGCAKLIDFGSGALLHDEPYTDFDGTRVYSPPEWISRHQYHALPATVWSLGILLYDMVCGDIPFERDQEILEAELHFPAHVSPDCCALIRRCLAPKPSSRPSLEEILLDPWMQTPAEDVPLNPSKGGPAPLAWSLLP

In the case of `COc1ccc(-c2cnccc2-c2cnc(NC(=O)C(C)C)s2)c(C(F)(F)F)c1` [CRT0105446, N-{5-[3-(4-Methoxy-2-trifluoromethyl-phenyl)-pyridin-4-yl]-hiazol-2-yl}-isobutyramide], the remaining binding at 10 µM was determined as 100% on EPHB2; 91% at NEK4; 100% at TRKC; 100% in [1]; 83% on DDR1; 100% at QSK. Moreover, the remaining binding at 10 µM is 72% in [2]; 17% on PCTK2; 69% on MERTK; 100% at PKAC-alpha; 100% on PIK3CA; 100% on SgK110. For the same compound, the remaining binding at 10 µM amounted to 69% on MLK2; 79% at TAK1; 92% on GAK; 66% on PDGFRA; 100% on PIM2; 99% on TGFBR1. Also, the remaining binding at 10 µM at BRK was determined as 100%; on MAP3K2, 82%; at IRAK4, 100%; at TNK1, 67%; at DCAMKL3, 88%.
In the case of `Cc1ccc(-c2cnccc2-c2cnc(Nc3ccc(O)cc3)s2)c(Cl)c1` [CRT0105950, 4-{5-[3-(2-Chloro-4-methyl-phenyl)-pyridin-4-yl]-thiazol-2-ylamino}-phenol], the remaining binding at 10 µM is 81% on EPHB2; 77% at NEK4; 0.6% at TRKC; 81% in test [1]; 0.1% on DDR1; 72% on QSK. The remaining binding at 10 µM in test [2] came to 25%; on PCTK2, 52%; at MERTK, 0.45%; at PKAC-alpha it was 41%; at PIK3CA, 100%; on SgK110, 25%. The remaining binding at 10 µM on MLK2 came to 40%; on TAK1, 33%; at GAK it was 22%; on PDGFRA, 48%; on PIM2 it was 100%; at TGFBR1, 74%. The remaining binding at 10 µM on BRK stood at 100%; on MAP3K2, 15%; at IRAK4, 80%; at TNK1, 3.7%; on DCAMKL3, 7.4%.
